Among the data in a melting point compilation (Tetko et al.; mined from patent text by program, amines drawn as free bases though some values may be those of a salt) are melting point values, retold here.

The melting point is the temperature, or range, at which the solid turns liquid. Compound `Cc1ccccc1-c1nc2ccccc2[nH]1` had a melting point of 215 °C.

`CN1CCN(C2=Nc3ccccc3-n3ccc4cc(Cl)cc2c43)CC1`: the melting point is 170 to 172 °C.

For `FC(F)(F)c1ccc(CN2CC3(COc4cc5c(cc43)CCO5)c3c(-c4cncnc4)cccc32)o1` (stereo unspecified), the melting point fell in the range of 263 to 266 °C.

`CNc1nc2c(s1)C(=O)CC(C)(C)C2`: the melting point was 217 to 218 °C.

Consider `Cc1oc(-c2ccccc2)nc1COc1cccc(CCl)c1`, for which the melting point is 79 to 80 °C.

In the case of `CN(C)c1ccc(/C=C/c2c(F)cccc2F)cc1`, the melting point was in the range of 112 to 113 °C.

`CCOC(=O)C(C)(C)n1c(=O)c2ccccc2n(CCCCBr)c1=O` returned a melting point of 113 to 114 °C.

For `CCCCCOc1ccc(C=C2SC(=S)N(CC(=O)O)C2=O)cc1OCc1ccccc1`, the melting point lay within 229 to 234 °C.

For `C=C(C)c1ccc(C2COc3c(C)c(C)c(NC(=O)CC(C)(C)C)c(C)c32)cc1OC` (stereo unspecified), the melting point fell in the range of 186 to 187 °C.

With `C/C(=C\C(=O)O)c1cnn(C)c1-c1ccc(F)cc1`, the melting point was 123 to 124 °C.

For the compound `O=C1c2ccccc2C(=O)c2sc(-c3ccc([N+](=O)[O-])o3)nc21`, the melting point was greater than 300 °C.

`ClCC1CCN(C(c2ccccc2)c2ccccc2)CC1`: the melting point fell in the range of 73 to 75 °C.

`CNc1nnc(-c2cc3c(Oc4ccc(Cl)cc4)cncc3s2)s1` yielded a melting point of 226 to 229 °C.

As for `Cc1csc2c1-n1cccc1C2=NO`, the melting point stood at 198 °C.

With `Cc1nnc(-c2ccc3occ(-c4ccc(S(C)(=O)=O)cc4)c3n2)o1`, the melting point was in the range of 250 to 251 °C.

`O=C1Nc2ccccc2C1=C(c1ccc(Cl)cc1)c1ccc(Cl)cc1` came in with a melting point of 206 to 208 °C.

In the case of `Cc1cc(S(F)(F)(F)(F)F)ccc1C(=O)NC(=N)N`, the melting point fell in the range of 183 to 184 °C.

In turn, `COC(C)c1ccc(O)cc1` (single isomer, unassigned; (+)) gave a melting point of 114 to 115 °C.

Turning to `Cc1nc(C(C)O)c[nH]1` (stereo unspecified), the melting point was 107 to 111 °C.

Compound `CCOC(=O)C(Cc1ccc(OCCBr)cc1)OCC` (stereo unspecified) had a melting point of 110 to 114 °C.

As for `O=C1c2cccc(OCc3ccccc3)c2-c2nn(CCNCCO)c3ccc(Cl)c1c23`, the melting point is 165 to 167 °C.

In turn, `Cc1noc(-c2ccc(C(=O)N3Cc4cccn4Cc4ccccc43)cc2)n1` returned a melting point of 177 to 179 °C.

The compound `CN(C)CCCOc1ccc(C[C@H](NC(=O)[C@@H]2CCCN2S(=O)(=O)c2cc(Cl)sc2Cl)C(=O)O)cc1` came in with a melting point greater than 200 °C.

As for `Cn1c(=O)c(-c2nnn(Cc3cccc(OCc4ccc5ccccc5n4)c3)n2)cc2cc(OCCCN3CCN(Cc4ccc5ccccc5n4)CC3)ccc21`, the melting point lay within 174 to 178 °C.

Turning to `CCCCc1nc(SCCCCCC(=O)O)c(C(=O)O)n1Cc1cc2c(cc1Cl)OCO2`, the melting point was 128 °C.

On to `O=C1CC(CF)(CF)Oc2ccc(C(F)(F)F)cc21`, for which the melting point was 73 to 74.5 °C.

In turn, `Cc1ccc2c(O)c(-c3cccc(Oc4ccccc4)c3)c(=O)[nH]c2c1` showed a melting point of 299 to 300 °C.

Consider `CCCCCCOC(=O)C(=O)Nc1cc(C#N)cc(NC(=O)C(=O)OCCCCCC)c1Cl`, for which the melting point fell in the range of 82 to 84 °C.

As to `O=C(N[C@H]1CC[C@H](CCN2CCC(c3cccc4c3CCO4)CC2)CC1)c1ccc(C(F)(F)F)cc1`, the melting point was determined as 228 °C.

For `O=C(NCCC1CCCCC1)NCCC1CCCCC1`, the melting point lay within 150 to 152 °C.

In turn, `CC(=O)Nc1c(C#N)cnn1-c1ccc(Cl)c(Cl)c1Cl` yielded a melting point of 222 to 224 °C.

Compound `COC1(NC(=O)OCc2ccccc2)CNC1=O` (stereo unspecified) displayed a melting point of 112 to 114 °C.

Take `CCCCCCCCCOC(=O)c1cc(-c2csc(-c3ccc(OCC)c(OCC)c3)n2)ccc1O`: the melting point is 67 to 68 °C.

As for `COc1c(Cl)ccc(-c2cc(N)c(Cl)c(C(=O)N3CCCO3)n2)c1F`, the melting point fell in the range of 204 to 207 °C.

With `CC(C)(C)OC(=O)NCC(N)c1c[nH]c2cc(Br)ccc12` (stereo unspecified), the melting point was determined as 80 °C.

In the case of `CCOC(=O)C(=O)Nc1cc2c3c(cccc3c1)C(=O)OC2=O`, the melting point lay within 275 to 276 °C.

For the compound `C[C@@H](O)Cn1cnc2c(N)ncnc21`, the melting point lay in the range of 188 to 190 °C.

`CC1(Br)C(Br)=CC(O)=C(Br)C1Br` (stereo unspecified): the melting point fell in the range of 195 to 196 °C.

For the compound `CNc1ccc(-c2[nH]cnc2-c2cc(OC)cc(OC)c2)cc1F`, the melting point fell in the range of 182 to 184 °C.

`O=C(O)c1ccc(O)c(C(=O)C=Cc2ccc(OCc3ccc4ccccc4n3)cc2)c1`: the melting point fell in the range of 258 to 260 °C.

`CS(=O)(=O)OCc1cc(OCc2ccccc2)cc(OCc2ccccc2)c1` showed a melting point of 85 to 86 °C.

In turn, `COc1ccnc(CO)c1OC` returned a melting point of 87 to 89 °C.

`CCC1C(=O)Nc2cc3[nH]c(-c4ccc(NC(C)=O)cc4OC)nc3cc21` (stereo unspecified) returned a melting point of 245 to 249 °C.

For the compound `CC(C(=O)c1ccccc1)(c1ccccc1)c1ccccc1Sc1ccccc1C(C)(C(=O)c1ccccc1)c1ccccc1` (stereo unspecified), the melting point was found to be 101 °C.

Consider `CC(C)(C)C(NC(=O)c1ccc(Cl)cc1)NC(=S)Nc1cccnc1` (stereo unspecified), for which the melting point lay within 164 to 167 °C.

On to `CC(C#Cc1ccc(Oc2ccc(Cc3ccc(F)cc3)cc2)o1)N(O)C(N)=O` (stereo unspecified), for which the melting point is 145 to 147 °C.

In the case of `CC1CCc2c(N3CCCCC3)c(Cl)cc3c(=O)c(C(=O)O)cn1c23` (stereo unspecified), the melting point was 246 to 248 °C.

On to `CSc1nc(NCCC(C)C)c2[nH]nc(C)c2n1`, for which the melting point was in the range of 90 to 95 °C.

`CCNc1nc(-c2ccc(NC(=O)NCc3ccc(N)nc3)cc2)ccc1C(=O)NC` returned a melting point of 223 to 226 °C.

Take `CCC(=O)NC[C@@H]1C[C@H]1c1c(I)ccc2c1CCO2` (relative stereo): the melting point lay in the range of 148 to 149 °C.

Compound `O=C(CC1=CC(OC2CCCCO2)CC1=O)Oc1ccc2ccccc2c1` (stereo unspecified) displayed a melting point of 75 °C.

`CCC(CO)Nc1nc(NCc2ccccc2N)c2ncn(C(C)C)c2n1` (racemic) gave a melting point of 149 to 151 °C.

For `O=C(O)CCCCCO/N=C/c1cccnc1`, the melting point came to 117 °C.

As for `CC(C)CC(=O)c1c(-c2ccc3cc(OCC(=O)O)cc(Br)c3c2)oc2ccccc12`, the melting point is 140 to 142 °C.

Turning to `CCOC(=O)C(=O)c1ccc(OCCCOc2ccc(C(C)=O)c(O)c2)cc1`, the melting point fell in the range of 63 to 65 °C.

`CCN(Cc1cc(Cl)ccc1OCC1CC1)c1ccc(C(N)=O)nn1` showed a melting point of 177 to 178 °C.

`COc1ccc(-c2cc(=Nc3c(C)cc(C)cc3C)n(C)c(NNC=O)n2)cc1OC` gave a melting point of 136 to 143 °C.

As to `CCn1nc(O)nc1Cl`, the melting point was in the range of 108 to 110 °C.

As to `C#CCn1ccn(C)c1=O`, the melting point lay within 69 to 72 °C.

`O=C(Nc1c[nH]nc1C(=O)NC1CCCC1)c1ccccn1` yielded a melting point of 240 to 241 °C.

The compound `CC(=O)OCC1OC([NH+]2C=NC(C#N)=C2[O-])C(OC(C)=O)C1OC(C)=O` (stereo unspecified) had a melting point of 160 to 161 °C.

`O=C(O)C(=O)NCCCCCC1CCSS1` (stereo unspecified) had a melting point of 75 to 79 °C.

On to `CC(=O)N[C@H](CF)CCC(=O)O`, for which the melting point lay within 80 to 83 °C.

`COc1ccc(NS(=O)(=O)c2ccc(N3CCNC3=O)cc2)cc1OC` registered a melting point of 215 to 216 °C.

Regarding `Cc1c(NC(=O)c2ccc(-c3ccc(Cl)cc3Cl)cc2F)ccc2cc(CN3CCCC3)cnc12`, the melting point fell in the range of 162 to 163 °C.

For `CC(O)(CCN1C(=O)c2ccccc2C1=O)c1ccc(-c2ccc(Cl)cc2)cc1` (stereo unspecified), the melting point was 177 to 179 °C.

`COc1ccc2[nH]c(COC(C)=O)c(C=O)c2c1[N+](=O)[O-]` yielded a melting point of 201 to 203 °C.

On to `COc1ccc(C[C@H](NC(=O)[C@H](CC(C)C)NC(=O)OCc2ccccc2)C(=O)CSC)cc1`, for which the melting point was in the range of 100 to 101 °C.

`Cn1c2cc(O)c(O)cc2c2cc(O)c(O)cc21` yielded a melting point greater than 270 °C.

The compound `Cc1n[nH]c(=O)cc1-c1ccc(OC2CCN(C(=O)OC(C)(C)C)CC2)cc1` returned a melting point of 184 to 186 °C.

`COc1ccc(C(=O)N2c3ccccc3C(N3CCc4ccccc43)CC2C)cc1OC` (stereo unspecified) displayed a melting point of 147 to 148 °C.

Take `Cc1ccc(OCCC(C(=O)O)c2ccccc2)c2ccccc12` (stereo unspecified): the melting point was in the range of 130 to 132 °C.

`CCc1cc(C(=O)O)ccc1N=C1SCC2(CCCC2)N1C1CCCC1` had a melting point of 208 to 209 °C.

For `O=S1CCON=C1c1nnc(-c2cccc(Cl)c2)o1` (stereo unspecified), the melting point was in the range of 208 to 210 °C.

In turn, `FC(F)(F)c1ccc(-c2cc(C(F)(F)F)n3cnc(-c4ccncc4)c3n2)cc1C(F)(F)F` showed a melting point of 211 °C.

For `CC(=O)Nc1occ(C(C)(C)C)c1C#N`, the melting point came to 135 °C.

`CCOC(=O)c1ccc(Br)cc1-c1ccc(OC)c(OC)c1` came in with a melting point of 53 °C.

`Oc1cccnc1Oc1cccc(Br)c1` had a melting point of 107 to 108 °C.

Turning to `Cc1c(-c2ccncn2)nc2n(c1=O)CCCN2CC(=O)c1ccccc1`, the melting point was 184 to 185 °C.

`C=CCn1c(=O)c2cnc(-n3ccnc3)nc2n(C(C)C)c1=O`: the melting point is 158 to 160 °C.

`CCCN(CCC)C(N)=C(C#N)C(N)=S` showed a melting point of 141 to 144 °C.

`CC(Nn1cncn1)(c1ccc(F)cc1)c1ccc(F)cc1` had a melting point of 114 to 119 °C.

For `CCCCc1ccc(-c2ccc(CCc3ccc(C(F)(F)F)cc3)cc2)cc1`, the melting point amounted to 85 °C.

`CC(=O)NCc1ccc(CN2CCN(c3ncc([N+](=O)[O-])s3)CC2)cc1` came in with a melting point of 151 to 152 °C.

`CC1(C(=O)c2ccc(C(=O)O)cc2)CC1` showed a melting point of 136 to 137 °C.

`CC(=O)NC[C@H]1CN(c2ccc(C3=CCN(C=O)CC3)c(F)c2)C(=O)O1` yielded a melting point of 148 to 151 °C.

The compound `CCOC(=O)c1cnc2c(nc(C)n2C)c1Cl` gave a melting point of 85 to 90 °C.

For `COc1cc2c(cc1OC)C(C(CO)CO)NCC2` (stereo unspecified), the melting point came out at 140 °C.

In turn, `COC(=O)CC(NCCN(C)C)C(=O)O` (stereo unspecified) registered a melting point of 164 to 166 °C.

`Cc1cc(C#N)ccc1N1CCCn2c1nc1c(Cl)ccc(C(OCC(F)(F)F)C3CC3)c12` (stereo unspecified) showed a melting point of 207 to 209 °C.

For the compound `O=C1CCC(=O)C(Cc2ccccc2)N1` (stereo unspecified), the melting point was 140 to 141 °C.
